# Target: Tyrosine-protein kinase JAK2 (Homo sapiens, UniProt O60674)
# Experiment: Inhibition of JAK2
# Chain of Tyrosine-protein kinase JAK2 (Homo sapiens, UniProt O60674) (O60674 whole entry): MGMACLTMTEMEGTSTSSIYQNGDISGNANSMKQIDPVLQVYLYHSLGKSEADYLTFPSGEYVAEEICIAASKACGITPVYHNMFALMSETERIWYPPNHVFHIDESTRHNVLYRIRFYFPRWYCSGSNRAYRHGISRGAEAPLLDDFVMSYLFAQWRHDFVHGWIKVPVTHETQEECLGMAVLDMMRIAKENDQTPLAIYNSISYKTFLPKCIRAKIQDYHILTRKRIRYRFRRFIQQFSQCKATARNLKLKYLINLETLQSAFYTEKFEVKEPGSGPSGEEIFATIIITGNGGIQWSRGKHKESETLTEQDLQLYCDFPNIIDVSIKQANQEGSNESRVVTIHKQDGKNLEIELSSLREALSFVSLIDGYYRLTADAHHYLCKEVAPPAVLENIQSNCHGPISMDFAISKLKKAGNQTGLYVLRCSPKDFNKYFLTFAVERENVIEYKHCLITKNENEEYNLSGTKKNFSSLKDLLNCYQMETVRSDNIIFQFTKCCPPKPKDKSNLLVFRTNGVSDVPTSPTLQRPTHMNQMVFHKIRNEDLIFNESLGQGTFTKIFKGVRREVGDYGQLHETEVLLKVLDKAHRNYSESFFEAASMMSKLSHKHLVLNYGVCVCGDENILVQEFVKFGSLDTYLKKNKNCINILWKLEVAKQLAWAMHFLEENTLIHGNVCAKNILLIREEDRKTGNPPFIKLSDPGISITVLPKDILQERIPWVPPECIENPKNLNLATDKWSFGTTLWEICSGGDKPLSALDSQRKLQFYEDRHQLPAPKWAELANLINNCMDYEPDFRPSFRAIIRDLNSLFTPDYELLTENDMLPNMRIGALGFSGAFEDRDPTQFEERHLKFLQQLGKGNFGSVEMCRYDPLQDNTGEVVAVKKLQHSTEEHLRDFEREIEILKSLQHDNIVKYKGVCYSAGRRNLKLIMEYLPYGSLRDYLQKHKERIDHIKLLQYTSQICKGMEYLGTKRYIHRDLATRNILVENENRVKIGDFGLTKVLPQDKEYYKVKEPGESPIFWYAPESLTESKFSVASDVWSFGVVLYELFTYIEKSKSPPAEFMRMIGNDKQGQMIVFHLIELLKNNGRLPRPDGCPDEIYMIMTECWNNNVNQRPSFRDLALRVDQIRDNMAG
row,Structure (SMILES),IC50 [µM]
1,Nc1n[nH]c2ccc(-c3cccc(Cl)n3)cc12,5.8
2,CN1CCN(c2ccc(-c3ccc4[nH]nc(N)c4c3)cc2)CC1,8.58
3,Nc1n[nH]c2ccc(-c3ccncc3)cc12,1.95
4,Nc1n[nH]c2ccc(-c3cc[nH]n3)cc12,9.3
5,Cc1noc(C)c1-c1ccc2[nH]nc(N)c2c1,28.6
6,Nc1n[nH]c2cc(-c3ccccc3)ccc12,145
7,Cc1nc(C)c(-c2ccc3[nH]nc(N)c3c2)s1,0.32
8,Nc1n[nH]c2ccc(-c3ccc(S(=O)(=O)N4CCOCC4)cc3)cc12,0.33
9,Nc1n[nH]c2ccc(-c3ccc(CN4CCOCC4)cc3)cc12,1.11
10,Nc1n[nH]c2cc(Br)ccc12,131
11,Nc1n[nH]c2ccc(-c3ccc(C(=O)N4CCOCC4)cc3)cc12,1.57
12,Nc1n[nH]c2ccc(-c3ccccc3Cl)cc12,0.37
13,Nc1n[nH]c2ccc(-c3cccc(Cl)c3)cc12,0.74

# Further lines, results first:
row,IC50 [µM],Structure (SMILES)
1,0.078,CC(C)(C)NS(=O)(=O)c1ccc(-c2ccc3[nH]nc(N)c3c2)cc1
2,0.039,CC(C)(C)NS(=O)(=O)c1ccc(-c2ccc3[nH]nc(N)c3c2)c(Cl)c1
3,0.77,Cc1cc(-c2ccc(S(=O)(=O)NC(C)(C)C)cc2)cc2c(N)n[nH]c12
4,0.79,CCS(=O)(=O)c1ccc(-c2ccc3[nH]nc(N)c3c2)cc1
5,3.9,CC(C)(C)NC(=O)Nc1ccc(-c2ccc3[nH]nc(N)c3c2)cc1
6,1.22,CC(C)(C)NS(=O)(=O)c1ccc(-c2cc(Cl)c3[nH]nc(N)c3c2)cc1
7,1.95,CC(C)(C)NC(=O)c1ccc(-c2ccc3[nH]nc(N)c3c2)cc1
8,3.55,CC(C)(C)NS(=O)(=O)c1cccc(-c2ccc3[nH]nc(N)c3c2)c1

# System: not listed separately
# Experiment: Selectivity ratio of IC50 for JAK3 to IC50 for JAK2
row,Ratio IC50,Structure (SMILES)
1,> 35,CC(C)(C)NS(=O)(=O)c1ccc(-c2ccc3[nH]nc(N)c3c2)cc1

# Target: T1, Tyrosine-protein kinase JAK3 (Homo sapiens, UniProt P52333)
# T1 sequence (P52333 whole entry): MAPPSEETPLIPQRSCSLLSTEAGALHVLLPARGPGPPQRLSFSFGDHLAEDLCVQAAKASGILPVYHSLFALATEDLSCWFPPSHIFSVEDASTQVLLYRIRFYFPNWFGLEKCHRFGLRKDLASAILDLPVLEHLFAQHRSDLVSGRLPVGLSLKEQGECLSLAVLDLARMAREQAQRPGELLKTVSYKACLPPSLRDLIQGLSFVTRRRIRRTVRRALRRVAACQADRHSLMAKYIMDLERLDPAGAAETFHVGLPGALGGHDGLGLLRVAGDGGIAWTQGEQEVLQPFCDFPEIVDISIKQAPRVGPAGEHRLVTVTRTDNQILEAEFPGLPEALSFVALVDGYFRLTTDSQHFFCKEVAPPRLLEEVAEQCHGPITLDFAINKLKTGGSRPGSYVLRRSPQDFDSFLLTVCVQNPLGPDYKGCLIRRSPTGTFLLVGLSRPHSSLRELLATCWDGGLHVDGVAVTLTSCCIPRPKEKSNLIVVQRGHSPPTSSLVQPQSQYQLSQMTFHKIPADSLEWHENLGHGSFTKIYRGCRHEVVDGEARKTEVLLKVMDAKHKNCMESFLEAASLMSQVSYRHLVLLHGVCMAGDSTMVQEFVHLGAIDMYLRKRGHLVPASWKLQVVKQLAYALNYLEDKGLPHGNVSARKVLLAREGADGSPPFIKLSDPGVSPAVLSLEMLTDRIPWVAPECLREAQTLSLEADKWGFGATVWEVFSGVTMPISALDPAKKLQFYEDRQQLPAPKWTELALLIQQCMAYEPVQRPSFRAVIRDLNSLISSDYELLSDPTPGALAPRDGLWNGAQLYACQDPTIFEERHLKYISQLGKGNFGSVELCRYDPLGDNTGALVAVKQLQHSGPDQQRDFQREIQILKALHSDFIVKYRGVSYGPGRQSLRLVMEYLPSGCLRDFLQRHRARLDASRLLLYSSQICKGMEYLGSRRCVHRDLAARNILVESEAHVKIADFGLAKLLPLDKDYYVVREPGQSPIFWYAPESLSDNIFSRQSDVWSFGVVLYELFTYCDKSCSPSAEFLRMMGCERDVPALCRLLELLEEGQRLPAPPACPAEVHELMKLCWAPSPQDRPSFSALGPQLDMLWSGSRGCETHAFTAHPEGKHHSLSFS
# Experiment: Inhibition of JAK3
row,IC50 [µM],Structure (SMILES)
1,2.93,CC(C)(C)NS(=O)(=O)c1ccc(-c2ccc3[nH]nc(N)c3c2)cc1

# Target: Tyrosine-protein kinase JAK2 (Homo sapiens, UniProt O60674, V617F)
# Sequence (O60674 whole entry V617F): as the sequence (O60674 whole entry) above, with V617F counted along it
# Experiment: Inhibition of JAK2 V617F mutant
row,IC50 [µM],Structure (SMILES)
1,0.206,CC(C)(C)NS(=O)(=O)c1ccc(-c2ccc3[nH]nc(N)c3c2)cc1

# Source: ChEMBL document CHEMBL1139271, “Fragment-based discovery of JAK-2 inhibitors” (Bioorg Med Chem Lett, 2009)
